Experimental data published in ChEMBL document CHEMBL3797097 (J Med Chem, 2016).

Experiments:
Homo sapiens [1] = species: Homo sapiens; assay: Selectivity index, ratio Ki for human D3 receptor to Ki for human D2 receptor using [3H]7-OH-DPAT displacement assay
D(2) dopamine receptor [2] = molecular target: T1, D(2) dopamine receptor (Homo sapiens, UniProt P14416); assay: biochemical; type: cell-based, HEK293
D(2) dopamine receptor [3] = molecular target: T1, D(2) dopamine receptor; assay: Agonist activity at recombinant human D2 receptor expressing in CHOp cells assessed as receptor mediated stimulation of mitogenesis measured as [3H]thymidine incorporation after 24 hrs by scintillation spectrometry; type: cell-based
D(3) dopamine receptor [4] = molecular target: T2, D(3) dopamine receptor (Homo sapiens, UniProt P35462); assay: Displacement of [3H]N-methylspiperone from human D3 receptor transfected in HEK293 cells measured after 60 mins by liquid scintillation counter; type: cell-based
T2 sequence (P35462 whole entry): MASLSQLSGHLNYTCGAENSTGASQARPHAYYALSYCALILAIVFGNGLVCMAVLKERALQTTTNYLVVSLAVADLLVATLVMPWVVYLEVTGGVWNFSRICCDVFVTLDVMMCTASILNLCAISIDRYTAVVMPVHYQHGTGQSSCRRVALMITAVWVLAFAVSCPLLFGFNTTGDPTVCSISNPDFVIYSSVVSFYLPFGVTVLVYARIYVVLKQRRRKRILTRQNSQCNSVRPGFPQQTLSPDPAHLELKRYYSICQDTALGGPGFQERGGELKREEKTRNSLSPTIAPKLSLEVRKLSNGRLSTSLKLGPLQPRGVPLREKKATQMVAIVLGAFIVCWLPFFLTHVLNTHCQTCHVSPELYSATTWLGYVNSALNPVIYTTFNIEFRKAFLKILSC

D(2) dopamine receptor [5] = molecular target: T1, D(2) dopamine receptor; assay: biochemical; type: cell-based, HEK293; remark: listed apart in the source
Homo sapiens [6] = species: Homo sapiens; assay: Selectivity index, ratio Ki for human D3 receptor to Ki for human D2 receptor using [3H]N-methylspiperone displacement assay
D(3) dopamine receptor [7] = molecular target: T2, D(3) dopamine receptor; assay: Agonist activity at recombinant human D3 receptor expressing in CHOp cells assessed as receptor mediated stimulation of mitogenesis measured as [3H]thymidine incorporation after 24 hrs by scintillation spectrometry; type: cell-based
D(3) dopamine receptor [8] = molecular target: T2, D(3) dopamine receptor; assay: Agonist activity at human D3 receptor transfected in HEK293T cells by BRET based G0 activation assay; type: cell-based, HEK-293T
D(3) dopamine receptor [9] = molecular target: T2, D(3) dopamine receptor; assay: Displacement of [3H]7-OH-DPAT from human D3 receptor transfected in HEK293 cells measured after 60 mins by liquid scintillation counter; type: cell-based
D(2) dopamine receptor [10] = molecular target: T1, D(2) dopamine receptor; assay: Agonist activity at human D2 receptor transfected in HEK293T cells by BRET based G0 activation assay; type: cell-based, HEK-293T

T1 sequence (P14416 whole entry): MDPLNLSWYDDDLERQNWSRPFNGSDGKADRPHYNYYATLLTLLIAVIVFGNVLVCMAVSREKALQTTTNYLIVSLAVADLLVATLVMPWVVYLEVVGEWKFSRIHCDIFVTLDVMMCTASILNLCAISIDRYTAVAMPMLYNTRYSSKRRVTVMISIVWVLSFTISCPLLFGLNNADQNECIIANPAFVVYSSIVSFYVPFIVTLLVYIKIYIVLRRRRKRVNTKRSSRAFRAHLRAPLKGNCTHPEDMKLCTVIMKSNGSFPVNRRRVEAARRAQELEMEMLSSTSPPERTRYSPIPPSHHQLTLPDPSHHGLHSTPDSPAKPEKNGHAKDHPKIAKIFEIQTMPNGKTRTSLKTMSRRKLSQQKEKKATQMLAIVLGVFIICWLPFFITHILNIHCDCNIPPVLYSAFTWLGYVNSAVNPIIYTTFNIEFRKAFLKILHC

Row | SMILES | Ratio Ki (Homo sapiens [1]) | Ki (D(2) dopamine receptor [2]) | EC50 (D(2) dopamine receptor [3]) | Ki (D(3) dopamine receptor [4]) | Ki (D(2) dopamine receptor [5]) | Ratio Ki (Homo sapiens [6]) | EC50 (D(3) dopamine receptor [7]) | EC50 (D(3) dopamine receptor [8]) | Ki (D(3) dopamine receptor [9]) | EC50 (D(2) dopamine receptor [10])
1 | CCCN(CCC)[C@@H]1Cc2cccc3nc(O)n(c23)C1 | 2.4 | – | – | – | – | – | – | – | – | –
2 | CCCN(CCC)[C@@H]1Cc2cccc3c2n(c(=O)n3CCC)C1 | 1.3 | 2.59 nM | 13.7 nM | 6.05 nM | 146 nM | 0.04 | 3.7 nM | 51.9 nM | 3.39 nM | 33.9 nM
3 | CCCN[C@@H]1Cc2cccc3c2n(c(=O)n3CCC)C1 | 2.7 | 8.08 nM | 13 nM | 47.9 nM | 868 nM | 0.06 | 56.1 nM | 1420 nM | 21.7 nM | 68 nM
4 | CN(CCCCNC(=O)c1cc2ccccc2[nH]1)[C@@H]1Cc2cccc3[nH]c(=O)n(c23)C1 | – | – | – | 337 nM | – | – | 53 nM | 94.3 nM | 76.9 nM | –
5 | CCCCn1c(=O)n2c3c(cccc31)C[C@@H](NC)C2 | 11 | 12.8 nM | 83 nM | 10.3 nM | 361 nM | 0.03 | 22 nM | 25.6 nM | 142 nM | 30.5 nM
6 | N[C@@H]1Cc2cccc3[nH]c(=O)n(c23)C1 | 30 | 114 nM | 684 nM | 11800 nM | 12100 nM | 0.98 | 3400 nM | 1890 nM | 3390 nM | 697 nM
7 | CCCN(C)[C@@H]1Cc2cccc3[nH]c(=O)n(c23)C1 | 8.3 | 12.5 nM | 18.1 nM | 290 nM | 1180 nM | 0.25 | 148 nM | 30.7 nM | 104 nM | 29 nM
8 | CN(CCCCNC(=O)c1ccc2c(c1)Cc1ccccc1-2)[C@@H]1Cc2cccc3[nH]c(=O)n(c23)C1 | 2.3 | 5.47 nM | 102 nM | 1090 nM | 3700 nM | 0.29 | 11.9 nM | 125 nM | 12.5 nM | 109 nM
9 | CCCN(CCC)[C@@H]1Cc2cccc3[nH]c(=O)n(c23)C1 | – | 11.4 nM | – | – | – | – | – | 21.8 nM | 27.1 nM | 2.53 nM
10 | CN[C@@H]1Cc2cccc3[nH]c(=O)n(c23)C1 [SUMANIROLE] | – | – | – | 6330 nM | – | – | 669 nM | 186 nM | 546 nM | –
11 | CCCn1c(=O)n2c3c(cccc31)C[C@@H](NC)C2 | 7.5 | 13.2 nM | 549 nM | 187 nM | 751 nM | 0.25 | 178 nM | 53.7 nM | 99.5 nM | 38.7 nM
12 | CCCN[C@@H]1Cc2cccc3nc(O)n(c23)C1 | – | – | – | 410 nM | – | – | 0.81 nM | 18.3 nM | 25.5 nM | –
13 | CN[C@@H]1Cc2cc(C#N)cc3[nH]c(=O)n(c23)C1 | – | 5120 nM | – | 27200 nM | – | – | – | – | – | –
